pEC50: −log10 of the molar value.
Assays:
Assay type in all cases: cell-based
ΔF508-CFTR [1] = target: T1, ΔF508-CFTR (Homo sapiens, UniProt P13569, DEL508-508); test: CFTR cell surface levels using HRP-tagged ΔF508-CFTR expressing CFBE cells, in the presence of a co-corrector; details: HRP-tagged ΔF508-CFTR CFBE cells, in the presence of 3 μM co-corrector; for pEC50: read-out: EC50
T1 construct: host or cells: CFBE41o-, doxycycline-inducible
Outline: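 Chemiluminescent read-out of surface HRP (15 min, dark) after PBS washes. Activity is normalized as 100×(sample−DMSO)/(3 μM co-corrector alone−DMSO).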

ΔF508-CFTR [2] = target: T1, ΔF508-CFTR; test: CFTR cell surface levels using HRP-tagged ΔF508-CFTR expressing CFBE cells, intrinsic corrector capacity; parameters: % Activation: concentration or dose not given beside the values; details: HRP-tagged ΔF508-CFTR expressing CFBE41o- cells, compound alone (intrinsic corrector capacity), 20 hours at 33° C.; for pEC50: read-out: EC50
Outline: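 Surface ΔF508-CFTR was measured as HRP chemiluminescence from an extracellular-loop-4 tag, expressed as percent activity between DMSO and a […] corrector control.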

CFTR ΔF508 = target: T2, CFTR ΔF508 (Homo sapiens, UniProt P13569, DEL508-508); test: Chronic TECC assay, primary bronchial epithelial cells of CF patients homozygous for CFTR ΔF508 (corrector, co-corrector and potentiator); details: chronic TECC, AUC = full area under the curve upon forskolin stimulation; for % Activity at 3 μM (AUC**): test compound at 3 μM; for EC50: read-out: EC50 (nM) (AUC**); for % Activity at 1 μM (AUC**): test compound at 1 μM
T2 construct: bronchial epithelial cells isolated from CF patients homozygous for the CFTR ΔF508 mutation; McGill University; Asterand; University of North Carolina hAEC-CF; host or cells: primary human bronchial epithelial cells from CF patients homozygous for ΔF508, differentiated at air-liquid interface
Outline: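 Primary bronchial epithelial cells from ΔF508-homozygous CF patients on collagen IV-coated Transwells were chronically treated with test compound plus corrector and potentiator, which were re-added before recording. Ieq was derived from PD and Rt in NaCl-Ringer, pH 7.4, at 37° C, with apical amiloride and bilateral forskolin, recorded every 2 min over 20 min. Ieq increase was normalized to controls, and EC50 was taken from per-well concentrations.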

T2 sequence (P13569 with tags, fused parts or gaps DEL508-508): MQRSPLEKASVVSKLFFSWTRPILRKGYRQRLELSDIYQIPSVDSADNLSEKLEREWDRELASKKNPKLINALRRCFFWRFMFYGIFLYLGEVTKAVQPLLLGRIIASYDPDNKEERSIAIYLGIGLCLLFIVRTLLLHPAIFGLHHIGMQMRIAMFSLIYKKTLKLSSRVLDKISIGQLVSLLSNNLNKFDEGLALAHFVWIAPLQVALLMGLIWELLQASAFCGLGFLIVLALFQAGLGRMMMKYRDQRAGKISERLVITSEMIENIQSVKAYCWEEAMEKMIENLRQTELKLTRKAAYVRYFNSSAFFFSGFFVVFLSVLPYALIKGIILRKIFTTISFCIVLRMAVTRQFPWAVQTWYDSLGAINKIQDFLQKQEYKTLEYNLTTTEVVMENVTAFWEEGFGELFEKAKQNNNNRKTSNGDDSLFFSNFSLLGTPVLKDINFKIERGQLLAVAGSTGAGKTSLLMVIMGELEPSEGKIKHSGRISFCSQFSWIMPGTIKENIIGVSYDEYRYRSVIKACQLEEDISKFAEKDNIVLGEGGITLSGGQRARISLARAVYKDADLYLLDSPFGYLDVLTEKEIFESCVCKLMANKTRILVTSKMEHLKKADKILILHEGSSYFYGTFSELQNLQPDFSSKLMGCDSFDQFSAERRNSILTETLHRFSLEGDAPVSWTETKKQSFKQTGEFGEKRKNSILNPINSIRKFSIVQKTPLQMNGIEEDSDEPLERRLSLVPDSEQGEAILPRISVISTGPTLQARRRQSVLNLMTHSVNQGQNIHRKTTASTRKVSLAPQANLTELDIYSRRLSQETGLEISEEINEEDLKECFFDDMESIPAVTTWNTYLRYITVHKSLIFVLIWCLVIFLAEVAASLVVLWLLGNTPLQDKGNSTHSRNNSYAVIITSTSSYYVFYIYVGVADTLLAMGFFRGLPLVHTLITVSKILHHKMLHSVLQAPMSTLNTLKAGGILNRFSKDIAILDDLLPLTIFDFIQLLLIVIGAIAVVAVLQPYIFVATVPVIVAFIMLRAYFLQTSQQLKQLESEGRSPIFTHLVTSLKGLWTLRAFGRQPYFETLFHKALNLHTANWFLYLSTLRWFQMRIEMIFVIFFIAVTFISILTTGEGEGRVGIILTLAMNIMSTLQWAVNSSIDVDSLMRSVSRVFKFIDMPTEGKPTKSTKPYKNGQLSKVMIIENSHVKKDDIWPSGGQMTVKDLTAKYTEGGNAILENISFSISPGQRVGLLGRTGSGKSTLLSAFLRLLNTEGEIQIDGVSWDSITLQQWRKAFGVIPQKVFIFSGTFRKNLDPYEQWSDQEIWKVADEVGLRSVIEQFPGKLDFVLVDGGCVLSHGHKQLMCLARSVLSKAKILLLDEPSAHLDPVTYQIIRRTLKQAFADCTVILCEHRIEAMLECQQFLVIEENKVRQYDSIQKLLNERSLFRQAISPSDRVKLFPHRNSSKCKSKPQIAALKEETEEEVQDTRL
T1 sequence (P13569 with tags, fused parts or gaps DEL508-508): as above

SMILES	% Activation (ΔF508-CFTR [1])	pEC50 (ΔF508-CFTR [1])	% Activation (ΔF508-CFTR [2])	pEC50 (ΔF508-CFTR [2])	% Activity at 3 μM (AUC**) (CFTR ΔF508)	EC50 (CFTR ΔF508)	% Activity at 1 μM (AUC**) (CFTR ΔF508)
CN(C)S(=O)(=O)NC(=O)c1cc(N2CCC3C(CCN3C3COC3)C2)c2c(C3CCC3)nn(-c3ccc(F)cc3)c2n1 (stereo not shown) [Compound 627, 3-cyclobutyl-N-(dimethylsulfamoyl)-1-(4-fluorophenyl)-4-[1-(oxetan-3-yl)octahydro-5H-pyrrolo[3,2-c]pyridin-5-yl]-1H-pyrazolo[3,4-b]pyridine-6-carboxamide]	348.57%	7.61	162.47%	7.08	446.6667%		
CN(C)S(=O)(=O)NC(=O)c1cc(N2CCC3C(CCN3C3CCOCC3)C2)c2c(C3CCC3)nn(-c3ccc(F)cc3)c2n1 (stereo not shown) [Compound 628, 3-cyclobutyl-N-(dimethylsulfamoyl)-1-(4-fluorophenyl)-4-[1-(oxan-4-yl)octahydro-5H-pyrrolo[3,2-c]pyridin-5-yl]-1H-pyrazolo[3,4-b]pyridine-6-carboxamide]	477.32%	6.88	283.25%	6.37	473.0586%	88.4 nM	
CNS(=O)(=O)NC(=O)c1cc(N2CCC(N3CCC(OC)CC3)CC2)c2c(C3CCC3)nn(-c3ccc(F)cc3)c2n1 [Compound 629, 3-cyclobutyl-1-(4-fluorophenyl)-4-(4-methoxy[1,4'-bipiperidin]-1'-yl)-N-(methylsulfamoyl)-1H-pyrazolo[3,4-b]pyridine-6-carboxamide]	546.75%	6.57	337.34%	6.29	153.3918%	6.85 nM	
COC1CCN(C2CCN(c3cc(C(=O)NS(N)(=O)=O)nc4c3c(C3CCC3)nn4-c3ccc(F)cc3)CC2)CC1 [Compound 630, 3-cyclobutyl-1-(4-fluorophenyl)-4-(4-methoxy[1,4'-bipiperidin]-1'-yl)-N-sulfamoyl-1H-pyrazolo[3,4-b]pyridine-6-carboxamide]	593.42%	6.43	339.64%	6.13		47.1 nM	125.1944%
COC1CCN(C2CCN(c3cc(C(=O)NS(=O)(=O)N4CCC4)nc4c3c(C3CCC3)nn4-c3ccc(F)cc3)CC2)CC1 [Compound 632, N-(azetidine-1-sulfonyl)-3-cyclobutyl-1-(4-fluorophenyl)-4-(4-methoxy[1,4'-bipiperidin]-1'-yl)-1H-pyrazolo[3,4-b]pyridine-6-carboxamide]	466.83%	6.81	252.75%	6.52	237.1158%	29.3 nM	
CC(C)Oc1nn(C2CCCCC2)c2nc(C(=O)NS(C)(=O)=O)cc(-c3ccc(CN4CC(N(C)C)C4)cc3)c12 [Compound 633, 1-cyclohexyl-4-(4-{[3-(dimethylamino)azetidin-1-yl]methyl}phenyl)-N-(methanesulfonyl)-3-[(propan-2-yl)oxy]-1H-pyrazolo[3,4-b]pyridine-6-carboxamide]	400.44%	6.68	180.46%	6.46		204 nM	
CC(C)Oc1nn(C2CCCCC2)c2nc(C(=O)NS(C)(=O)=O)cc(-c3ccc(CN4CCN(C(C)C)CC4)cc3)c12 [Compound 634, 1-cyclohexyl-N-(methanesulfonyl)-3-[(propan-2-yl)oxy]-4-(4-{[4-(propan-2-yl)piperazin-1-yl]methyl}phenyl)-1H-pyrazolo[3,4-b]pyridine-6-carboxamide]	439.44%	7.10	227.46%	6.70		138 nM	
CNS(=O)(=O)NC(=O)c1cc(N2CCC(N3CCN(C(C)C)CC3)CC2)c2c(C3CCC3)nn(-c3ccc(F)cc3)c2n1 [Compound 638, 3-cyclobutyl-1-(4-fluorophenyl)-N-(methylsulfamoyl)-4-{4-[4-(propan-2-yl)piperazin-1-yl]piperidin-1-yl}-1H-pyrazolo[3,4-b]pyridine-6-carboxamide]	606.08%	7.02	398.98%	6.62	341.3493%	11.2 nM	
COC1CCN(C2CCN(c3cc(C(=O)NS(=O)(=O)N4CC(OC)C4)nc4c3c(C3CCC3)nn4-c3ccc(F)cc3)CC2)CC1 [Compound 645, 3-cyclobutyl-1-(4-fluorophenyl)-N-(3-methoxyazetidine-1-sulfonyl)-4-(4-methoxy[1,4'-bipiperidin]-1'-yl)-1H-pyrazolo[3,4-b]pyridine-6-carboxamide]	384.37%	6.61	194.33%	6.48	246.4648%		
COC1CCN(C2CCN(c3cc(C(=O)NS(=O)(=O)N4CC(F)C4)nc4c3c(C3CCC3)nn4-c3ccc(F)cc3)CC2)CC1 [Compound 646, 3-cyclobutyl-N-(3-fluoroazetidine-1-sulfonyl)-1-(4-fluorophenyl)-4-(4-methoxy[1,4'-bipiperidin]-1'-yl)-1H-pyrazolo[3,4-b]pyridine-6-carboxamide]	447.9%	6.59	236.13%	6.40	276.7167%	23.5 nM	
COC1CCN(C2CCN(c3cc(C(=O)NS(=O)(=O)N4CCOCC4)nc4c3c(C3CCC3)nn4-c3ccc(F)cc3)CC2)CC1 [Compound 647, 3-cyclobutyl-1-(4-fluorophenyl)-4-(4-methoxy[1,4'-bipiperidin]-1'-yl)-N-(morpholine-4-sulfonyl)-1H-pyrazolo[3,4-b]pyridine-6-carboxamide]	337.07%	6.95	164.47%	6.67	420.0246%	151 nM	
CS(=O)(=O)NC(=O)c1cc(C2CCC(N3CCOCC3)CC2)c2c(C3CCC3)nn(-c3ccccc3)c2n1 (stereo not shown) [Compound 648, 3-cyclobutyl-N-(methanesulfonyl)-4-[4-(morpholin-4-yl)cyclohexyl]-1-phenyl-1H-pyrazolo[3,4-b]pyridine-6-carboxamide]	288.85%	6.96	109.65%	6.50			366.0679%
CN(C)S(=O)(=O)NC(=O)c1cc(C2CCC(N3CCOCC3)CC2)c2c(C3CCC3)nn(-c3ccccc3)c2n1 (stereo not shown) [Compound 649, 3-cyclobutyl-N-(dimethylsulfamoyl)-4-[4-(morpholin-4-yl)cyclohexyl]-1-phenyl-1H-pyrazolo[3,4-b]pyridine-6-carboxamide]	231.7%	6.82	69.12%	6.43	224.5026%		
CN(C(=O)c1cc(N2CCC(N3CCOCC3)CC2)c2c(C3CCC3)nn(-c3ccc(F)cc3)c2n1)S(C)(=O)=O [Compound 654, 3-cyclobutyl-1-(4-fluorophenyl)-N-(methanesulfonyl)-N-methyl-4-[4-(morpholin-4-yl)piperidin-1-yl]-1H-pyrazolo[3,4-b]pyridine-6-carboxamide]	347.6%	6.94	73.925%	5.29			293.3333%
CCS(=O)(=O)N(C)C(=O)c1cc(N2CCC(CN3CCCC3)CC2)c2c(C3CCC3)nn(-c3ccccc3)c2n1 [Compound 659, 3-cyclobutyl-N-(ethanesulfonyl)-N-methyl-1-phenyl-4-{4-[(pyrrolidin-1-yl)methyl]piperidin-1-yl}-1H-pyrazolo[3,4-b]pyridine-6-carboxamide]	290.95%	6.88	96.44%	6.85	251.6549%		
